Data set [1] can be described thus: Ratio of drug uptake in skull to hippocampus in baboon at 1.2 mCi after 115 mins. The data set is classed as ADME, tissue-based. The conditions noted are these: papio hamadryas, in vivo.
Data set [2] can be described thus: Drug level in baboon plasma assessed as unmetabolized fractions after 60 mins. The data set is classed as ADME, cell-free. The conditions noted are these: papio hamadryas, read-out: Activity.
The nature of data set [3]: Ratio of drug uptake in skull to cingulate in baboon at 1.2 mCi after 115 mins. The data set is classed as ADME. The conditions noted are these: papio hamadryas, in vivo.
Data set [4] is described as follows: Ratio of drug uptake in skull to cerebellum in baboon at 1.2 mCi after 115 mins. The conditions noted are these: papio hamadryas, in vivo. The data set is classed as ADME, tissue-based.
Data set [5] in a line: Ratio of drug uptake in skeleton to heart in Sprague-Dawley rat at 0.2 mCi, iv after 112 mins. The data set is classed as ADME, organism-based. To be noted: in vivo.
A short description of data set [6]: Drug level in baboon plasma assessed as unmetabolized fractions after 12 mins. The data set is classed as ADME, cell-free. To be noted: papio hamadryas, read-out: Activity.
Data set [7] in a line: Ratio of drug uptake in skeleton to cerebellum in Sprague-Dawley rat at 0.2 mCi, iv after 112 mins. The data set is classed as ADME, organism-based. To be noted: in vivo.
Data set [8] is described as follows: Ratio of drug uptake in skeleton to brain in Sprague-Dawley rat at 0.2 mCi, iv after 112 mins. The data set is classed as ADME, organism-based. To be noted: in vivo.
Data set [9] can be described thus: Drug level in baboon plasma assessed as unmetabolized fractions after 2 mins. The conditions noted are these: papio hamadryas, read-out: Activity. The data set is classed as ADME, cell-free.
Data set [10] can be described thus: Ratio of drug uptake in skull to caudate in baboon at 1.2 mCi after 115 mins. The data set is classed as ADME. To be noted: papio hamadryas, in vivo.
Data set [11] is described as follows: Ratio of drug uptake in skull to thalamus in baboon at 1.2 mCi after 115 mins. The data set is classed as ADME, tissue-based. To be noted: papio hamadryas, in vivo.
Data set [12] is described as follows: Ratio of drug uptake in skull to putamen in baboon at 1.2 mCi after 115 mins. The data set is classed as ADME. To be noted: papio hamadryas, in vivo.
The nature of data set [13]: Drug level in baboon plasma assessed as unmetabolized fractions after 30 mins. The data set is classed as ADME, cell-free. The conditions noted are these: papio hamadryas, read-out: Activity.
Data set [14] in a line: Drug level in baboon plasma assessed as unmetabolized fractions after 4 mins. The data set is classed as ADME, cell-free. To be noted: papio hamadryas, read-out: Activity.

1 compound from ChEMBL document CHEMBL1146341, “Synthesis and in vivo evaluation of [18F]-4-[5-(4-methylphenyl)-3-(trifluoromethyl)-1H-pyrazol-1-yl]benzenesulfonamide as a PET imaging probe for COX-2 expression” (Bioorg Med Chem, 2007) can be followed below.

With `Cc1ccc(-c2cc(C(F)(F)[18F])nn2-c2ccc(S(N)(=O)=O)cc2)cc1`, the Ratio in [1] was found to be 1.41; in data set [3], 1.43; in [4], 1.2; in data set [5], 0.7; in data set [7], 0.5; in [8], 0.45. Besides, the figures for the Ratio in [10], in data set [11] and in data set [12] were 1.48, 1.6 and 1.46, respectively. In data set [2], the remaining at 1 h was 17%. The remaining at 0.2 h in data set [6] is 47.5%. Besides, in data set [9], the remaining at 2 min stood at 93.2%. Besides, the remaining at 0.5 h in [13] is 30.2%. The remaining at 4 min in data set [14] came out at 84.9%.
